Key:
Assay in all cases: relative viability (nuclei count vs DMSO), 5 days (fraction); higher = more cells survive
[1] = tested on: SW 900
Summary of the method: (§1)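 Five library-drug doses in √10 steps were combined with a fixed anchor-drug dose, or a single drug was given alone, by pin tool to lung cancer cell lines in 1536-well plates the day after seeding. Nuclei were stained and counted after 5 days. Relative viability is the nuclei count in treated wells over that in vehicle wells, taken as the median of duplicate plates.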

[2] = tested on: NCI-H2085
Summary of the method: as §1

[3] = tested on: NCI-H358
Summary of the method: as §1

[4] = tested on: NCI-H1944
Summary of the method: as §1

[5] = tested on: LC-2-ad
Summary of the method: as §1

[6] = tested on: HOP-62
Summary of the method: as §1

[7] = tested on: LU99A
Summary of the method: as §1

[8] = tested on: UMC-11
Summary of the method: as §1

[9] = tested on: NCI-H2009
Summary of the method: as §1

[10] = tested on: NCI-H1666
Summary of the method: as §1

[11] = tested on: NCI-H1793
Summary of the method: as §1

[12] = tested on: A-427
Summary of the method: as §1

[13] = tested on: LXF-289
Summary of the method: as §1

[14] = tested on: NCI-H460
Summary of the method: as §1

[15] = tested on: EPLC-272H
Summary of the method: as §1

[16] = tested on: NCI-H2170
Summary of the method: as §1

[17] = tested on: NCI-H1792
Summary of the method: as §1

[18] = tested on: COR-L 105
Summary of the method: as §1

[19] = tested on: SK-LU-1
Summary of the method: as §1

[20] = tested on: NCI-H1915
Summary of the method: as §1

SMILES: CC(=O)O[C@@]12CO[C@@H]1C[C@H](O)[C@@]1(C)C(=O)[C@H](O)C3=C(C)[C@@H](OC(=O)[C@H](O)[C@@H](NC(=O)OC(C)(C)C)c4ccccc4)C[C@@](O)([C@@H](OC(=O)c4ccccc4)[C@H]21)C3(C)C [Docetaxel] + CCNC(=O)c1noc(-c2cc(C(C)C)c(O)cc2O)c1-c1ccc(CN2CCOCC2)cc1 [Luminespib] (partner 0.01 µM)
- relative viability ([1]; first compound 0.0002 µM): 0.185
- relative viability ([1]; first compound 0.000632 µM): 0.182
- relative viability ([1]; first compound 0.002 µM): 0.174
- relative viability ([1]; first compound 0.006325 µM): 0.186
- relative viability ([1]; first compound 0.02 µM): 0.167
- relative viability ([2]; first compound 0.0002 µM): 0.378
- relative viability ([2]; first compound 0.000632 µM): 0.454
- relative viability ([2]; first compound 0.002 µM): 0.446
- relative viability ([2]; first compound 0.006325 µM): 0.322
- relative viability ([2]; first compound 0.02 µM): 0.341
- relative viability ([3]; first compound 0.0002 µM): 0.314
- relative viability ([3]; first compound 0.000632 µM): 0.305
- relative viability ([3]; first compound 0.002 µM): 0.135
- relative viability ([3]; first compound 0.006325 µM): 0.12
- relative viability ([3]; first compound 0.02 µM): 0.098
- relative viability ([4]; first compound 0.0002 µM): 0.724
- relative viability ([4]; first compound 0.000632 µM): 0.723
- relative viability ([4]; first compound 0.002 µM): 0.635
- relative viability ([4]; first compound 0.006325 µM): 0.249
- relative viability ([4]; first compound 0.02 µM): 0.114
- relative viability ([5]; first compound 0.0002 µM): 0.777
- relative viability ([5]; first compound 0.000632 µM): 0.544
- relative viability ([5]; first compound 0.002 µM): 0.503
- relative viability ([5]; first compound 0.006325 µM): 0.445
- relative viability ([6]; first compound 0.0002 µM): 0.938
- relative viability ([6]; first compound 0.000632 µM): 0.744
- relative viability ([6]; first compound 0.002 µM): 0.509
- relative viability ([6]; first compound 0.006325 µM): 0.282
- relative viability ([7]; first compound 0.0002 µM): 0.218
- relative viability ([7]; first compound 0.000632 µM): 0.245
- relative viability ([7]; first compound 0.002 µM): 0.23
- relative viability ([7]; first compound 0.006325 µM): 0.193
- relative viability ([7]; first compound 0.02 µM): 0.2
- relative viability ([8]; first compound 0.0002 µM): 1.02
- relative viability ([8]; first compound 0.000632 µM): 0.917
- relative viability ([8]; first compound 0.002 µM): 0.406
- relative viability ([8]; first compound 0.006325 µM): 0.271
- relative viability ([8]; first compound 0.02 µM): 0.183
- relative viability ([9]; first compound 0.0002 µM): 0.979
- relative viability ([9]; first compound 0.000632 µM): 1.09
- relative viability ([9]; first compound 0.002 µM): 0.956
- relative viability ([9]; first compound 0.006325 µM): 0.78
- relative viability ([9]; first compound 0.02 µM): 0.261
- relative viability ([10]; first compound 0.0002 µM): 0.943
- relative viability ([10]; first compound 0.000632 µM): 0.776
- relative viability ([10]; first compound 0.002 µM): 0.623
- relative viability ([10]; first compound 0.006325 µM): 0.512
- relative viability ([10]; first compound 0.02 µM): 0.374
- relative viability ([11]; first compound 0.0002 µM): 0.174
- relative viability ([11]; first compound 0.002 µM): 0.238
- relative viability ([11]; first compound 0.006325 µM): 0.177
- relative viability ([11]; first compound 0.02 µM): 0.134
- relative viability ([12]; first compound 0.0002 µM): 0.883
- relative viability ([12]; first compound 0.000632 µM): 0.832
- relative viability ([12]; first compound 0.002 µM): 0.507
- relative viability ([12]; first compound 0.006325 µM): 0.238
- relative viability ([12]; first compound 0.02 µM): 0.161
- relative viability ([13]; first compound 0.0002 µM): 0.683
- relative viability ([13]; first compound 0.000632 µM): 0.694
- relative viability ([13]; first compound 0.002 µM): 0.138
- relative viability ([13]; first compound 0.006325 µM): 0.111
- relative viability ([13]; first compound 0.02 µM): 0.0768
- relative viability ([14]; first compound 0.0002 µM): 0.032
- relative viability ([14]; first compound 0.002 µM): 0.0279
- relative viability ([14]; first compound 0.006325 µM): 0.025
- relative viability ([14]; first compound 0.02 µM): 0.0187
- relative viability ([15]; first compound 0.0002 µM): 0.133
- relative viability ([15]; first compound 0.000632 µM): 0.316
- relative viability ([15]; first compound 0.002 µM): 0.205
- relative viability ([15]; first compound 0.006325 µM): 0.0836
- relative viability ([15]; first compound 0.02 µM): 0.119
- relative viability ([16]; first compound 0.0002 µM): 0.726
- relative viability ([16]; first compound 0.000632 µM): 0.704
- relative viability ([16]; first compound 0.002 µM): 0.451
- relative viability ([16]; first compound 0.006325 µM): 0.261
- relative viability ([16]; first compound 0.02 µM): 0.148
- relative viability ([17]; first compound 0.0002 µM): 0.43
- relative viability ([17]; first compound 0.000632 µM): 0.374
- relative viability ([17]; first compound 0.002 µM): 0.382
- relative viability ([17]; first compound 0.006325 µM): 0.338
- relative viability ([17]; first compound 0.02 µM): 0.212
- relative viability ([18]; first compound 0.0002 µM): 0.99
- relative viability ([18]; first compound 0.000632 µM): 0.713
- relative viability ([18]; first compound 0.002 µM): 0.531
- relative viability ([18]; first compound 0.006325 µM): 0.595
- relative viability ([18]; first compound 0.02 µM): 0.305
- relative viability ([19]; first compound 0.0002 µM): 0.205
- relative viability ([19]; first compound 0.000632 µM): 0.218
- relative viability ([19]; first compound 0.006325 µM): 0.193
- relative viability ([19]; first compound 0.02 µM): 0.159
- relative viability ([20]; first compound 0.0002 µM): 0.838
- relative viability ([20]; first compound 0.000632 µM): 0.796
- relative viability ([20]; first compound 0.002 µM): 0.467
- relative viability ([20]; first compound 0.006325 µM): 0.141
- relative viability ([20]; first compound 0.02 µM): 0.0759
